Experimental data published in PubChem BioAssay (NCI).
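Interpolation was linear, between the two tested concentrations surrounding the appropriate level; five concentrations were tested over 48 hours in 96-well plates. Here, GI50 denotes the concentration required for 50% inhibition of growth. Definition used: TGI = concentration required for complete inhibition of growth.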

Assays:
Assay in all cases: NCI anticancer screen, dose series, 48 h
786-0 renal = system: 786-0 renal
A498 renal = system: A498 renal
A549 NSCLC = system: A549 NSCLC
ACHN renal = system: ACHN renal
BT-549 breast = system: BT-549 breast
CAKI-1 renal = system: CAKI-1 renal
CCRF-CEM leukemia = system: CCRF-CEM leukemia
COLO 205 colon = system: COLO 205 colon
DU-145 prostate = system: DU-145 prostate
EKVX NSCLC = system: EKVX NSCLC
HCC-2998 colon = system: HCC-2998 colon
HCT-116 colon = system: HCT-116 colon
HCT-15 colon = system: HCT-15 colon
HL-60(TB) leukemia = system: HL-60(TB) leukemia
HOP-62 NSCLC = system: HOP-62 NSCLC
HOP-92 NSCLC = system: HOP-92 NSCLC
HS 578T breast = system: HS 578T breast
HT29 colon = system: HT29 colon
IGROV1 ovarian = system: IGROV1 ovarian
K-562 leukemia = system: K-562 leukemia
KM12 colon = system: KM12 colon
LOX IMVI melanoma = system: LOX IMVI melanoma
M14 melanoma = system: M14 melanoma
MALME-3M melanoma = system: MALME-3M melanoma
MCF7 breast = system: MCF7 breast
MDA-MB-231 breast = system: MDA-MB-231 breast
MDA-MB-435 = system: MDA-MB-435
MDA-MB-468 breast = system: MDA-MB-468 breast
MOLT-4 leukemia = system: MOLT-4 leukemia
NCI-H226 lung = system: NCI-H226 lung
NCI-H23 lung = system: NCI-H23 lung
NCI-H460 lung = system: NCI-H460 lung
NCI-H522 lung = system: NCI-H522 lung
OVCAR-3 ovarian = system: OVCAR-3 ovarian
OVCAR-4 ovarian = system: OVCAR-4 ovarian
OVCAR-5 ovarian = system: OVCAR-5 ovarian
OVCAR-8 ovarian = system: OVCAR-8 ovarian
PC-3 prostate = system: PC-3 prostate
RPMI-8226 leukemia = system: RPMI-8226 leukemia
RXF 393 renal = system: RXF 393 renal
SF-268 CNS = system: SF-268 CNS
SF-295 CNS = system: SF-295 CNS
SF-539 CNS = system: SF-539 CNS
SK-MEL-2 melanoma = system: SK-MEL-2 melanoma
SK-MEL-28 melanoma = system: SK-MEL-28 melanoma
SK-MEL-5 melanoma = system: SK-MEL-5 melanoma
SK-OV-3 ovarian = system: SK-OV-3 ovarian
SN12C renal = system: SN12C renal
SNB-19 CNS = system: SNB-19 CNS
SNB-75 CNS = system: SNB-75 CNS
SR leukemia = system: SR leukemia
SW-620 colon = system: SW-620 colon
T-47D breast = system: T-47D breast
TK-10 renal = system: TK-10 renal
U251 CNS = system: U251 CNS
UACC-257 melanoma = system: UACC-257 melanoma
UACC-62 melanoma = system: UACC-62 melanoma
UO-31 renal = system: UO-31 renal

Compound O=C(c1ccc(O)cc1)C1[C@H](c2ccc(Br)cc2)[C@@H](c2ccccc2)NC12C(=O)Nc1ccc(Br)cc12 (stereo partly specified) has a GI50 (786-0 renal) of 5.22 µM, a TGI (786-0 renal) of 9.86 µM and a GI50 (A498 renal) of 4.24 µM. The TGI (A498 renal) was 8.7 µM, the GI50 (A549 NSCLC) was 3.59 µM and the TGI (A549 NSCLC) was 8.38 µM. For the same compound, the GI50 (ACHN renal) was 4.03 µM, the TGI (ACHN renal) was 8.21 µM and the GI50 (BT-549 breast) was 5.54 µM. It also gave a TGI (BT-549 breast) of 10.4 µM, a GI50 (CAKI-1 renal) of 2.28 µM and a TGI (CAKI-1 renal) of 7.08 µM. It also gave a GI50 (CCRF-CEM leukemia) of 5.09 µM, a TGI (CCRF-CEM leukemia) of 11.6 µM and a GI50 (COLO 205 colon) of 4.57 µM. For the same compound, the TGI (COLO 205 colon) was 9.99 µM, the GI50 (DU-145 prostate) was 5.23 µM and the TGI (DU-145 prostate) was 10 µM. It also gave a GI50 (EKVX NSCLC) of 4.19 µM, a TGI (EKVX NSCLC) of 9.07 µM and a GI50 (HCC-2998 colon) of 4.19 µM. It also gave a TGI (HCC-2998 colon) of 8.86 µM, a GI50 (HCT-116 colon) of 4.16 µM and a TGI (HCT-116 colon) of 8.63 µM. For the same compound, the GI50 (HCT-15 colon) was 4.16 µM, the TGI (HCT-15 colon) was 9.35 µM and the GI50 (HL-60(TB) leukemia) was 7.39 µM. It also gave a TGI (HL-60(TB) leukemia) of 16.7 µM, a GI50 (HOP-62 NSCLC) of 4.81 µM and a TGI (HOP-62 NSCLC) of 9.7 µM. It also gave a GI50 (HOP-92 NSCLC) of 4.39 µM, a TGI (HOP-92 NSCLC) of 9.26 µM and a GI50 (HS 578T breast) of 4.95 µM. For the same compound, the TGI (HS 578T breast) was 12.9 µM, the GI50 (HT29 colon) was 4.48 µM and the TGI (HT29 colon) was 9.48 µM. It also gave a GI50 (IGROV1 ovarian) of 3.88 µM, a TGI (IGROV1 ovarian) of 8.19 µM and a GI50 (K-562 leukemia) of 4.72 µM. For the same compound, the TGI (K-562 leukemia) was 11.8 µM, the GI50 (KM12 colon) was 4.5 µM and the TGI (KM12 colon) was 10.1 µM. For the same compound, the GI50 (LOX IMVI melanoma) was 4.36 µM, the TGI (LOX IMVI melanoma) was 9.1 µM and the GI50 (M14 melanoma) was 4.52 µM. It also gave a TGI (M14 melanoma) of 9.24 µM, a GI50 (MALME-3M melanoma) of 4.96 µM and a TGI (MALME-3M melanoma) of 9.61 µM. It also gave a GI50 (MCF7 breast) of 3.89 µM, a TGI (MCF7 breast) of 9.13 µM and a GI50 (MDA-MB-231 breast) of 4.25 µM. For the same compound, the TGI (MDA-MB-231 breast) was 8.61 µM, the GI50 (MDA-MB-435) was 5.81 µM and the TGI (MDA-MB-435) was 11.1 µM. The GI50 (MDA-MB-468 breast) was 4.58 µM, the TGI (MDA-MB-468 breast) was 9.97 µM and the GI50 (MOLT-4 leukemia) was 3.39 µM. The TGI (MOLT-4 leukemia) was 9.62 µM, the GI50 (NCI-H226 lung) was 4.39 µM and the TGI (NCI-H226 lung) was 9.76 µM. It also gave a GI50 (NCI-H23 lung) of 4.9 µM, a TGI (NCI-H23 lung) of 9.81 µM and a GI50 (NCI-H460 lung) of 4.29 µM. For the same compound, the TGI (NCI-H460 lung) was 8.92 µM, the GI50 (NCI-H522 lung) was 4.45 µM and the TGI (NCI-H522 lung) was 9.15 µM. For the same compound, the GI50 (OVCAR-3 ovarian) was 5.21 µM, the TGI (OVCAR-3 ovarian) was 10.1 µM and the GI50 (OVCAR-4 ovarian) was 4.82 µM. It also gave a TGI (OVCAR-4 ovarian) of 9.63 µM, a GI50 (OVCAR-5 ovarian) of 4.83 µM and a TGI (OVCAR-5 ovarian) of 9.34 µM. The GI50 (OVCAR-8 ovarian) was 5.06 µM, the TGI (OVCAR-8 ovarian) was 9.8 µM and the GI50 (PC-3 prostate) was 4.14 µM. It also gave a TGI (PC-3 prostate) of 9.22 µM, a GI50 (RPMI-8226 leukemia) of 5.97 µM and a TGI (RPMI-8226 leukemia) of 19 µM. It also gave a GI50 (RXF 393 renal) of 3.54 µM, a TGI (RXF 393 renal) of 8.33 µM and a GI50 (SF-268 CNS) of 4.56 µM. The TGI (SF-268 CNS) was 10.2 µM, the GI50 (SF-295 CNS) was 4.23 µM and the TGI (SF-295 CNS) was 8.81 µM. It also gave a GI50 (SF-539 CNS) of 5.34 µM, a TGI (SF-539 CNS) of 10 µM and a GI50 (SK-MEL-2 melanoma) of 4.95 µM. It also gave a TGI (SK-MEL-2 melanoma) of 9.48 µM, a GI50 (SK-MEL-28 melanoma) of 5.3 µM and a TGI (SK-MEL-28 melanoma) of 9.96 µM. The GI50 (SK-MEL-5 melanoma) was 5.63 µM, the TGI (SK-MEL-5 melanoma) was 10.4 µM and the GI50 (SK-OV-3 ovarian) was 4.51 µM. For the same compound, the TGI (SK-OV-3 ovarian) was 9.21 µM, the GI50 (SN12C renal) was 4.53 µM and the TGI (SN12C renal) was 8.99 µM. The GI50 (SNB-19 CNS) was 5.11 µM, the TGI (SNB-19 CNS) was 9.75 µM and the GI50 (SNB-75 CNS) was 2.12 µM. For the same compound, the TGI (SNB-75 CNS) was 7.06 µM, the GI50 (SR leukemia) was 3.79 µM and the TGI (SR leukemia) was 9.3 µM. It also gave a GI50 (SW-620 colon) of 5.08 µM, a TGI (SW-620 colon) of 10.2 µM and a GI50 (T-47D breast) of 3.93 µM. For the same compound, the TGI (T-47D breast) was 8.58 µM, the GI50 (TK-10 renal) was 4.44 µM and the TGI (TK-10 renal) was 8.86 µM. For the same compound, the GI50 (U251 CNS) was 4.96 µM, the TGI (U251 CNS) was 9.62 µM and the GI50 (UACC-257 melanoma) was 4.93 µM. For the same compound, the TGI (UACC-257 melanoma) was 9.52 µM, the GI50 (UACC-62 melanoma) was 4.22 µM and the TGI (UACC-62 melanoma) was 8.54 µM. For the same compound, the GI50 (UO-31 renal) was 2.66 µM and the TGI (UO-31 renal) was 7.08 µM.
